This is an account of results in US20250120967A1, “TYROSINE KINASES INHIBITORS AND USES THEREOF” (GREAT NOVEL THERAPEUTICS BIOTECH & MEDICALS CORPORATION, priority 2023, published 2025).

Common to all, as to test: Tyrosine kinase inhibition assay
Common to all, as to assay type: biochemical
Holding throughout (settings): single concentration 1.0 μM, read-out: percent inhibition

For one assay, the target named is T1, DDR2 (Homo sapiens, UniProt Q16832).
T1 sequence (Q16832 22-855): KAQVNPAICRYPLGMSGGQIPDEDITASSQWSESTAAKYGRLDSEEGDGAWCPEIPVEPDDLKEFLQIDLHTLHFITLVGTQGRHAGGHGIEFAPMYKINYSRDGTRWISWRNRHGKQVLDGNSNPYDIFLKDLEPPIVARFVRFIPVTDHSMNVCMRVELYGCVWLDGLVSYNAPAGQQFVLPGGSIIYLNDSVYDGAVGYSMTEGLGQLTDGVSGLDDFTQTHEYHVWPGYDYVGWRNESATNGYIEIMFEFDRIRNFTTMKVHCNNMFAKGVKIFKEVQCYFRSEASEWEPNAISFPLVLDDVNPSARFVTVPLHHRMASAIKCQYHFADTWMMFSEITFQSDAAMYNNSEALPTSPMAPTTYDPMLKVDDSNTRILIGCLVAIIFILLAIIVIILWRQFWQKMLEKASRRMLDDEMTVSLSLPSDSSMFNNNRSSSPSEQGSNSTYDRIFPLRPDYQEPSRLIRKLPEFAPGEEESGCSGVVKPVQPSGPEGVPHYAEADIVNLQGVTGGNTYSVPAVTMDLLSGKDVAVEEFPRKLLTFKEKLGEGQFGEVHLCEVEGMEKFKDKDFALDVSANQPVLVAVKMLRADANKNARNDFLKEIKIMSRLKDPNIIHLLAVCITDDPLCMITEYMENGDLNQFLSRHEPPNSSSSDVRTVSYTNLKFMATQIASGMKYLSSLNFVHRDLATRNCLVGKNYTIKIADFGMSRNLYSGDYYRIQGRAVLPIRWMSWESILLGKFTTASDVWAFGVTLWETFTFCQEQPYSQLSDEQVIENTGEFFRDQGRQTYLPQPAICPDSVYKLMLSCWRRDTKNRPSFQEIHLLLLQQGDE
In a few lines: (§1)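 Single-point screen, 1.0 μM compound, 1% DMSO final; ATP at apparent Km. Buffer: 50 mM HEPES pH 7.5, 0.01% BRIJ-35, 10 mM MgCl2, 1 mM EGTA. Z′-LYTE readout, % inhibition; hit = >80%.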

The next assay concerns the target T2, EPHA6 (Homo sapiens, UniProt Q9UF33).
T2 sequence (Q9UF33 23-1036): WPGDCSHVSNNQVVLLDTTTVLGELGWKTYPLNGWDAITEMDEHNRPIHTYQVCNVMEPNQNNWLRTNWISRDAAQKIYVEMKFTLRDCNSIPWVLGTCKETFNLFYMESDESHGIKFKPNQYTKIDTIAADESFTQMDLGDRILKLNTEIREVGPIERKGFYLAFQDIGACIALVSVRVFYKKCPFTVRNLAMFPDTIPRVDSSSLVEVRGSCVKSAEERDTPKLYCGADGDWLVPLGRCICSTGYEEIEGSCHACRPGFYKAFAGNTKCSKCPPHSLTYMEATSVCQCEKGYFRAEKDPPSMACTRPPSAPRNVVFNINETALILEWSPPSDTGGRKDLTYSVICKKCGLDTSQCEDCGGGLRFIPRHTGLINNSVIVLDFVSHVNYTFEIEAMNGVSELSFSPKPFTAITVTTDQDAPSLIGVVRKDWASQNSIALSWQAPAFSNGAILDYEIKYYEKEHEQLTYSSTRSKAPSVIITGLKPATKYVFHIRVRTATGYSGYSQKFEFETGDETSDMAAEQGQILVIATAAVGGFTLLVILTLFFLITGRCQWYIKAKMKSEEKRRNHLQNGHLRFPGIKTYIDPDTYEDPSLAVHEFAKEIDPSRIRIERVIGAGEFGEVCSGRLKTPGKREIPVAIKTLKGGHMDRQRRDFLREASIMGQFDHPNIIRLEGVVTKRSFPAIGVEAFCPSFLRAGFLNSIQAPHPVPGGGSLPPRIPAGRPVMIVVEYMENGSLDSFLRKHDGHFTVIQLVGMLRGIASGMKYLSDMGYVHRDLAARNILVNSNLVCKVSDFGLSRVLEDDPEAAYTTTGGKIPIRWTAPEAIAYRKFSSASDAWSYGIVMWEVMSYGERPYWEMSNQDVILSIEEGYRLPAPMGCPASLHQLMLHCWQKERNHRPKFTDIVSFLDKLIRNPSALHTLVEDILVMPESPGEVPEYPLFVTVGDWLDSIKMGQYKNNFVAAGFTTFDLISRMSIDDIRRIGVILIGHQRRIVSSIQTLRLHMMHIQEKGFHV
In a few lines:
as §1

A further assay deals with ERBB2 (HER2) (Homo sapiens, UniProt P04626). The essentials: as §1
ERBB2 (HER2), sequence (P04626 23-1255): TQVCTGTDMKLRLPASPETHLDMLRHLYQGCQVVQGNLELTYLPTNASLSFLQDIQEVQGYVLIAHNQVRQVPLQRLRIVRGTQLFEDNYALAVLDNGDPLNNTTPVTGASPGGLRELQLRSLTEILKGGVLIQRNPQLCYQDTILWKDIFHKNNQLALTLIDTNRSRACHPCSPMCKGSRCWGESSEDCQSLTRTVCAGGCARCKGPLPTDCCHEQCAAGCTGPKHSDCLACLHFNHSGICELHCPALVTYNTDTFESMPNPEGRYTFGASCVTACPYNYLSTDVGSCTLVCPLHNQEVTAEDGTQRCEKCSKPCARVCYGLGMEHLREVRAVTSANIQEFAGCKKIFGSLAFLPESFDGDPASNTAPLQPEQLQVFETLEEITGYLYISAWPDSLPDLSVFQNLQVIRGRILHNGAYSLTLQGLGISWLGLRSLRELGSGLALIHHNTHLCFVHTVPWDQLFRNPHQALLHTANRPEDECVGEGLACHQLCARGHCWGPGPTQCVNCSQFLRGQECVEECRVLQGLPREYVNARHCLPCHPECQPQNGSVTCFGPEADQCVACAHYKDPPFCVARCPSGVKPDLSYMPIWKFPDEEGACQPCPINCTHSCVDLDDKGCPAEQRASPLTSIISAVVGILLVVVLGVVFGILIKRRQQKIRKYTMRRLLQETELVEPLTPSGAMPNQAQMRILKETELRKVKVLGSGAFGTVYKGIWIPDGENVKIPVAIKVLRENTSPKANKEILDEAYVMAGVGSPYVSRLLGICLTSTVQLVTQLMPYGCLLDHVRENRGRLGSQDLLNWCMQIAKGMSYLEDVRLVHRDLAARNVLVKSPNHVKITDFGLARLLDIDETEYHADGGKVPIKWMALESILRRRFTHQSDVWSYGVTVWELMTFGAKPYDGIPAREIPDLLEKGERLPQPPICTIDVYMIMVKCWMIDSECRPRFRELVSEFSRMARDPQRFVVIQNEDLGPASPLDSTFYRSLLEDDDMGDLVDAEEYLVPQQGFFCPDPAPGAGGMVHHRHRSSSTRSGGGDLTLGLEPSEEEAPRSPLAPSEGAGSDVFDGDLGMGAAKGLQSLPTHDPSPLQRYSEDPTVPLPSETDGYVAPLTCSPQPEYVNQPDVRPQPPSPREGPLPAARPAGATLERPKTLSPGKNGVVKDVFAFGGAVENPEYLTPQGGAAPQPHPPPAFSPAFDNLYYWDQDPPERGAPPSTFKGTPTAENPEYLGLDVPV
The target of another assay is T3, TXK (Homo sapiens, UniProt P42681).
T3 sequence (P42681 1-527): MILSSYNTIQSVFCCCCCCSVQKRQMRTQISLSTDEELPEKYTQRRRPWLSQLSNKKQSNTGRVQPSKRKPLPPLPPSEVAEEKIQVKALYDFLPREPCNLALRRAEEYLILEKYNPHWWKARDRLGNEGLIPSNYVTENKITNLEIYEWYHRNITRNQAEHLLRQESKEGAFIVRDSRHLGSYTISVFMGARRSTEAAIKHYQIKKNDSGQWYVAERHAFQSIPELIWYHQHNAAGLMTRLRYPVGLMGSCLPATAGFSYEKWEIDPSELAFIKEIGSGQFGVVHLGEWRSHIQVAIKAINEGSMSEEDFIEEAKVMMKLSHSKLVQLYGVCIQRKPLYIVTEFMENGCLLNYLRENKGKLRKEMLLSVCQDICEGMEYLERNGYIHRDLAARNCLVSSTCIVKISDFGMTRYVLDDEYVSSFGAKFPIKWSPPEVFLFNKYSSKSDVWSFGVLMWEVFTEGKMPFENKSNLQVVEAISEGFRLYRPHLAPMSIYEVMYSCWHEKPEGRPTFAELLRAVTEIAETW
The essentials: as §1

The target of another assay is TYK2 (Homo sapiens, UniProt P29597). In a few lines: as §1
TYK2, sequence (P29597 whole entry): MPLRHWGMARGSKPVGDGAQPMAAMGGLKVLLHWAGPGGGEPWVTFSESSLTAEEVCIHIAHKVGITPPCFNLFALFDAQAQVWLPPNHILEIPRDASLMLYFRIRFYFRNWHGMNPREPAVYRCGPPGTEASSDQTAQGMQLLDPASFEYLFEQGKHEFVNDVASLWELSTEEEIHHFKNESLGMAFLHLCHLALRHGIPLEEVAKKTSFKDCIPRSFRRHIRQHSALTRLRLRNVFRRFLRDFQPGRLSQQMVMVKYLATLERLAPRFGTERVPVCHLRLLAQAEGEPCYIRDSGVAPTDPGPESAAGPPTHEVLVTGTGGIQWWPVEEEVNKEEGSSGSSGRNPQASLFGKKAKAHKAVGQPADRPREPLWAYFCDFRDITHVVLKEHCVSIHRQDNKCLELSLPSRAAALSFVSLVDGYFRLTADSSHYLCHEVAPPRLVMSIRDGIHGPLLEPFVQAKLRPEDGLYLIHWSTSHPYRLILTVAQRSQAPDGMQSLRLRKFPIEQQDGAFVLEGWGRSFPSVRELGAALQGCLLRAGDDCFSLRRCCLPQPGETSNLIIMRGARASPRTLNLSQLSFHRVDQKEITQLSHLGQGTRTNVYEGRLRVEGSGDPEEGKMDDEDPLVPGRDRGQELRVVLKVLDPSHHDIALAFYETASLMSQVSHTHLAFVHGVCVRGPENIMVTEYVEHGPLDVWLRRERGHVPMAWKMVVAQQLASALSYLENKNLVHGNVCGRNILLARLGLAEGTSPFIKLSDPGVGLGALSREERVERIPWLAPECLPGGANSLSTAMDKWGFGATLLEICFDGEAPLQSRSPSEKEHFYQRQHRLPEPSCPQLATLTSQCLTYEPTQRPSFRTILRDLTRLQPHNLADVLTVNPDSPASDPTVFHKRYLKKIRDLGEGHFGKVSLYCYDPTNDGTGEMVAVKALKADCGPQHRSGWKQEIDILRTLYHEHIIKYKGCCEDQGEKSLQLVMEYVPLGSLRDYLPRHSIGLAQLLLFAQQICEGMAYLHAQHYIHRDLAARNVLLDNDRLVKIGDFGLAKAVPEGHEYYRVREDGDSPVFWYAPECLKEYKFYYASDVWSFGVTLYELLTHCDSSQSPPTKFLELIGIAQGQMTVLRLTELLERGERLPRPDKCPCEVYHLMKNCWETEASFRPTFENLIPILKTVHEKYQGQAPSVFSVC

As to `COc1cc2nccc(Oc3ccc(NC(=O)C4(C(=O)Nc5ccc(F)cc5)CC4)cc3)c2cc1OC` [Cabozantinib, reference compound], the inhibition (commonly the relative decrease from the control value, in per cent) at 1 µM on DDR2 stood at 100%; at EPHA6 it was 103%; at ERBB2 (HER2), 17%; at TXK it was 17%; on TYK2, 9%.
With `COc1cc2nccc(Oc3ccc(NC(=O)C4(NC(=O)c5ccc(F)cc5)CC4)cc3F)c2cc1OC` [Cbo-02, N-(1-((4-((6,7-diMethoxyquinolin-4-yl)oxy)-3-fluorophenyl)carbamoyl)cyclopropyl)-4-fluorobenzamide], the inhibition at 1 µM on DDR2 was 32%; at EPHA6, 75%; on ERBB2 (HER2), 50%; at TXK, 14%; at TYK2 it was 7%.
Consider `COc1cc2nccc(Oc3ccc(NC(=O)C4(NC(=O)c5ccc(F)cc5)CC4)cc3F)c2cc1Oc1ccc(N)cc1F` [Cbo-10], for which the inhibition at 1 µM came to 51% on DDR2; 94% on EPHA6; 90% at ERBB2 (HER2); 55% at TXK; 9% on TYK2.
For `COc1cc2nccc(Oc3ccc(NC(=O)C4(NC(=O)c5ccc(F)cc5)CC4)cc3F)c2cc1Oc1c(F)cc(N)cc1F` [Cbo-14], the inhibition at 1 µM is 60% on DDR2; 96% on EPHA6; 90% at ERBB2 (HER2); 52% on TXK; 16% at TYK2.
With `COc1cc2nccc(Oc3ccc(NC(=O)C4(C(=O)Nc5ccc(F)cc5)CC4)cc3F)c2cc1Oc1ccc(N)cc1F` [Cbo-23], the inhibition at 1 µM on DDR2 was 91%; on EPHA6, 100%; on ERBB2 (HER2), 54%; at TXK, 32%; on TYK2, 7%.
